{"source": "patent US10137171B2", "about": "“Methods of treatment using a pentapeptide derived from the C-Terminus of Glucagon-Like Peptide 1 (GLP-1)” (The General Hospital Corporation, priority 2011, dated 2018)", "key": {"diet-induced obese mice": {"system": "diet-induced obese mice", "assay": "Intraperitoneal glucose tolerance test (ipGTT)", "assay_type": "in vivo, mouse", "settings": "glucose 2 g/kg BW ip, overnight fasted, VHFD 24 weeks", "procedure": "FIGS. 5C-D are a pair of line graphs Plasma glucose levels (FIG. 5C) and (FIG. 5D) Plasma insulin levels after an intraperitoneal glucose administration ([…] BW ip) in overnight fasted mice fed in VHFD for 24-weeks and 16-weeks of continuous infusions of vehicle or GLP-1(32-36)amide. ***p<4E-03 vehicle vs. GLP-1(32-36)amide, *p<0.01 vehicle vs. GLP-1(32-36)amide, **p<0.004 vehicle vs. GLP-1(32-36)amide, *****p<1.7E-05 vehicle vs. GLP-1(32-36)amide, ****p<6.7 E-04 vehicle vs. GLP-1(32-36)amide.\nMice were maintained in a normal light/dark cycle according to the standard protocols of the MGH Animal Care and Use Committee. Mice were tested with age matched or litter mate controls and 6 mice per group are required. […] The following morning the mice were prepared for the glucose tolerance test: animals were weighed, the tail was nicked with a fresh razor blade by a horizontal cut of the very end, ˜35 to 50 microliters of blood is massaged from the tail to an eppendorf tube which is immediately placed on ice, baseline blood glucose is measured by the glucose oxidase method using a Glucometer Elite glucometer, and 2 grams/kg body weight of 20% D-glucose is drawn up in a Beckton Dickenson D 29 gage ½″ insulin syringe (one unit of D-glucose for every gram of body weight). Animals were then transferred to individually labeled 1000 cc cardboard soup cups with the lid liners removed.\nFollowing animal preparation, glucose was injected into the intraperitoneal cavity. At 10, 20, 30, 60, 120, and 140 minutes blood glucose is sampled from the tail of each mouse by gently massaging a small drop of blood onto the glucometer strip. Glucose injections and blood glucose sampling is timed to take approximately the same amount of time per animal (i.e. 25 animals are injected in 12 minutes and blood glucose sampling of those same 25 animals should also take about 12 minutes) so that the sample times are accurate for each animal."}, "[1]": {"assay": "Plasma peptide concentrations by LC-MS after continuous infusion", "assay_type": "in vivo, mouse", "procedure": "(§1) Mice were given single i.v. injections of the propeptide, GLP-1(9-36)amide and blood samples were taken at times 2, 5, and 10 min. Plasma was assayed for the presence of GLP-1(9-36)amide, GLP-1(28-36)amide, and GLP-1(32-36)amide by electron spray mass spectrometry (ES-MS. Pooled plasma samples collected after a 28 day continuous infusion of GLP-1(9-36)amide or GLP-1(28-36)amide in mice were assayed for peptide concentrations by liquid chromatography mass spectrometry (LC-MS)."}, "[2]": {"system": "insulin-resistant isolated mouse hepatocytes", "assay": "Glucose production assay in isolated hepatocytes", "assay_type": "cell-based", "settings": "stimulated by cAMP/dexamethasone/lactate; basal glucose production not suppressed", "excerpt": "FIG. 8 is a bar graph showing suppression of glucose production by the pentapeptide GLP-1(32-36)amide (LVKGRamide (SEQ ID NO:1)) in insulin-resistant hepatocytes. Mice (male, C57bl/6) from 12-19 weeks of age were fasted overnight (16 hrs) and primary hepatocytes were isolated using a collagen and perfusion gradient purification. Cells were first seeded using a Dulbecco's modified Eagle's medium (DMEM) supplemented with 10% FBS, 1 g/L glucose, 2 mmol/1 sodium pyruvate, 1 micromol/L dexamethasone, and 0.1 micromol/L insulin, and later maintained in DMEM with 0.2% BSA, 1 g/L glucose, 0.1 micromol/L dexamethasone, and lnmol/L insulin. […] The readings were then normalized to total protein content determined from whole-cell lysates. […]\nPrimary hepatocytes (2×10^5 cells per well in twelve-well plates) were pre-treated with GLP-1(32-36)amide for 1 hour followed by the stimulation of insulin resistance by the addition of cAMP (10 microM)/dexamethasone ([…])/sodium lactate (2 mM) in glucose-free DMEM without phenol red. […] The readings were then normalized to total protein content determined from whole-cell lysates."}, "[3]": {"assay": "Mass spectrometry of mouse plasma after i.v. injection of GLP-1(9-36)amide", "assay_type": "in vivo", "procedure": "FIG. 7B is a line graph showing the results of experiments involving intravenous push injection of GLP-1(9-36)amide, 32-36 amide, and […] into mice, collecting blood plasma at 2, 5, and 10 min, and analyzing the peptide profiles by liquid chromatography-mass spectrometry (LC-MS). Relative amounts of peptides at times indicated are shown. Y-axis, arbitrary units\nas §1"}, "[4]": {"settings": "pooled mouse plasma after four weeks infusion"}}, "note": "Where no end group is shown, it is not given here."}
{"substance": "FIAWLVKGR-NH2 [GLP-1(28-36)amide, FIAWLVKGRamide]", "values": [{"measurement": "glycemic response in ipGTT", "setting": "diet-induced obese mice; 16 weeks infusion (FIG. 5C)", "result": "normal glycemic response"}, {"measurement": "insulin response in ipGTT", "setting": "diet-induced obese mice; 16 weeks infusion (FIG. 5D)", "result": "strong insulin response"}, {"measurement": "level at time molar at 672 h", "setting": "[1]; mouse, plasma, 2.0 mg/ml in the osmopump, four weeks infusion, read-out: plasma levels of GLP-1(28-36)amide in mice infused with GLP-1(28-36)amide", "result": "~0.24", "unit": "nM"}, {"measurement": "plasma levels of GLP-1(28-36)amide in mice infused with GLP-1(9-36)amide", "setting": "[1]; [4]", "result": "~0.1", "unit": "nM"}, {"measurement": "glucose production (formation)", "setting": "[2]", "result": "dose-dependently suppressed"}]}
{"substance": "GLP-1(9-36)amide", "values": [{"measurement": "presence of nona and pentapeptides in plasma after injection of GLP-1(9-36)amide", "setting": "[3]; mouse plasma 2 min after i.v. injection, mass spectrometry", "result": "readily detected"}, {"measurement": "conversion of GLP-1(9-36)amide to the nona and pentapeptides in the circulation", "setting": "[3]; mouse plasma, i.v. pulse injection", "result": "rapidly converted"}, {"measurement": "plasma concentration of GLP-1(9-36)amide during its continuous infusion", "setting": "[1]; [4]", "result": "not detectable"}]}
